# Laboratory results: the supplement of paper PMC10307832
# Experiments:
# Test in all cases: relative viability (nuclei count vs DMSO), 5 days (fraction); higher = more cells survive
# [1] = compound: CC(O)(CS(=O)(=O)c1ccc(F)cc1)C(=O)Nc1ccc(C#N)c(C(F)(F)F)c1 [Bicalutamide] + CC(=O)c1c(C)c2cnc(Nc3ccc(N4CCNCC4)cn3)nc2n(C2CCCC2)c1=O [Palbociclib] (partner 0.5 µM)
# Outline: (§1)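 Lung cancer cell lines, seeded in 1536-well plates, were treated the following day by pin tool with a single drug or with five library-drug doses (not always all listed) in √10 steps on top of a fixed anchor-drug dose. Cells were fixed and nuclei stained in one step after 5 days, and nuclei were counted. Relative viability is the nuclei count for treated wells divided by that for vehicle wells, reported as medians of duplicate plates.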
# [2] = compound: CC(O)(CS(=O)(=O)c1ccc(F)cc1)C(=O)Nc1ccc(C#N)c(C(F)(F)F)c1 [Bicalutamide] + N=C(N)NC(=N)NCCc1ccccc1 [Phenformin] (partner 250 µM)
# Outline: as §1
# [3] = compound: CC(O)(CS(=O)(=O)c1ccc(F)cc1)C(=O)Nc1ccc(C#N)c(C(F)(F)F)c1 [Bicalutamide] + CCNC(=O)c1noc(-c2cc(C(C)C)c(O)cc2O)c1-c1ccc(CN2CCOCC2)cc1 [Luminespib] (partner 0.01 µM)
# Outline: as §1
# [4] = compound: C(C(=O)C(=O)O)Br [Bromopyruvate] + CS(=O)(=O)CCNCc1ccc(-c2ccc3ncnc(Nc4ccc(OCc5cccc(F)c5)c(Cl)c4)c3c2)o1 [Lapatinib] (partner 2 µM)
# Outline: as §1
Cell Line,relative viability ([1]; first compound 0.08 µM),relative viability ([1]; first compound 0.253 µM),relative viability ([1]; first compound 0.8 µM),relative viability ([1]; first compound 2.53 µM),relative viability ([2]; first compound 0.08 µM),relative viability ([2]; first compound 0.253 µM),relative viability ([2]; first compound 0.8 µM),relative viability ([2]; first compound 2.53 µM),relative viability ([3]; first compound 0.08 µM),relative viability ([3]; first compound 0.253 µM),relative viability ([3]; first compound 0.8 µM),relative viability ([3]; first compound 2.53 µM),relative viability ([4]; first compound 1 µM),relative viability ([4]; first compound 3.162 µM),relative viability ([4]; first compound 10 µM),relative viability ([4]; first compound 31.62 µM),relative viability ([4]; first compound 100 µM)
NCI-H2342,0.526,0.519,0.726,0.523,0.641,0.466,0.702,0.608,0.682,0.752,0.746,0.729,,,,,
SK-MES-1,0.319,0.3,0.3,0.281,0.726,0.654,0.728,0.617,0.609,0.736,0.97,0.709,0.417,0.466,0.488,0.432,0.465
NCI-H1993,0.642,0.513,0.793,0.772,0.437,0.51,0.434,0.447,0.835,0.894,1.07,0.999,0.698,0.763,0.705,0.847,0.769
HCC-366,0.368,0.383,0.583,0.359,0.568,0.615,0.699,0.64,,,,,1.03,1.02,1.24,1.01,1.05
201T,0.379,0.351,0.386,0.365,0.503,0.414,0.481,0.416,1.06,1.03,1.02,1.1,1.03,1.06,1.03,0.942,1.02
HCC-827,0.499,0.389,0.496,0.476,0.405,0.316,0.412,0.443,0.704,0.676,1.35,0.668,0.205,0.191,0.167,0.193,0.214
NCI-H650,0.372,0.345,0.397,0.267,0.52,0.433,0.466,0.395,0.822,0.793,0.947,0.792,1.12,1.16,0.966,0.885,0.769
NCI-H2085,0.494,0.465,0.478,0.468,0.742,0.686,0.781,0.608,0.59,0.587,0.459,0.448,0.761,0.784,0.771,0.815,0.707
NCI-H596,,,,,0.586,0.643,0.794,0.897,1.08,0.945,1.28,1.14,1.11,1.08,1.15,1.01,1.16
SK-LU-1,0.403,0.452,0.43,0.378,0.571,0.519,0.637,0.48,0.189,0.188,0.217,0.188,1.06,0.806,0.81,0.823,0.88
A-427,0.547,0.54,0.56,0.526,0.382,0.283,0.367,0.224,1.02,0.761,1,0.763,1.08,1.03,1.01,1.03,1.04
NCI-H460,0.171,0.185,0.193,0.102,0.559,0.524,0.834,0.52,0.0289,0.0405,0.0453,0.035,0.967,0.881,1.8,1.01,0.967
NCI-H1703,,,,,,,,,,,,,1.14,1.35,1.39,1.15,1.22
NCI-H1792,0.653,0.569,0.759,0.614,0.275,,0.444,0.344,0.411,,0.571,0.236,0.949,0.972,1.06,0.674,0.835
Calu-6,,,,,,,,,,,,,1.04,1.15,1.08,1.06,0.856
SW 1573,0.418,0.451,0.457,0.351,0.413,,0.377,0.366,0.506,0.213,0.209,0.181,1.11,1.03,1.09,1.05,0.904
RERF-LC-KJ,1.08,1.05,1.17,0.865,0.406,0.396,0.431,0.336,1.24,1.2,1.36,1.2,0.874,0.892,0.984,0.868,0.829
EMC-BAC-2,0.532,0.502,0.543,0.437,0.541,0.554,0.609,0.46,1.13,1.14,1.17,1.06,0.832,0.922,1,0.833,0.912
LK-2,0.665,0.511,0.783,0.63,0.526,0.198,0.498,0.629,0.161,0.167,0.175,0.21,0.936,0.88,0.871,0.967,0.826
NCI-H2228,0.797,0.775,0.745,0.779,0.356,0.371,0.58,0.291,0.231,0.241,0.169,0.14,1.45,0.99,1.2,1.12,1.1
NCI-H322M,0.515,0.482,0.464,0.524,0.821,0.789,0.904,0.859,0.872,0.891,1.03,1.06,0.573,0.548,0.485,0.624,0.612
NCI-H1975,0.627,0.532,0.688,0.492,0.4,0.409,0.442,0.37,0.294,0.23,0.33,0.177,0.876,1.08,1.01,0.838,0.833
NCI-H1944,0.335,0.299,0.354,0.323,0.216,0.181,0.238,0.217,0.759,0.66,0.845,0.779,0.826,0.903,0.932,0.7,0.869

Cell Line,relative viability ([1]; first compound 0.08 µM),relative viability ([1]; first compound 0.253 µM),relative viability ([1]; first compound 0.8 µM),relative viability ([1]; first compound 2.53 µM),relative viability ([2]; first compound 0.08 µM),relative viability ([2]; first compound 0.253 µM),relative viability ([2]; first compound 0.8 µM),relative viability ([2]; first compound 2.53 µM),relative viability ([3]; first compound 0.08 µM),relative viability ([3]; first compound 0.253 µM),relative viability ([3]; first compound 0.8 µM),relative viability ([3]; first compound 2.53 µM),relative viability ([4]; first compound 1 µM),relative viability ([4]; first compound 3.162 µM),relative viability ([4]; first compound 10 µM),relative viability ([4]; first compound 31.62 µM),relative viability ([4]; first compound 100 µM)
LU99A,0.386,0.36,0.531,0.393,0.917,0.715,0.997,0.663,0.268,0.236,0.286,0.205,1.05,0.898,1.12,0.992,1.09
NCI-H2405,0.555,0.506,0.581,0.486,0.436,0.358,0.468,0.415,0.669,0.661,0.826,0.627,1.13,1.12,1.13,0.965,1.14
NCI-H2023,0.406,0.373,0.408,0.286,0.447,0.315,0.456,0.454,0.868,0.703,1,0.634,0.803,0.922,0.743,0.877,0.793
HCC-15,0.727,0.501,0.79,0.767,0.513,0.418,0.6,0.484,0.445,0.294,0.57,0.62,0.868,0.873,0.849,0.856,0.844
HCC-44,0.953,1.03,1.04,0.944,0.302,0.177,0.292,0.184,0.907,0.97,1.44,1.15,0.959,1.02,1.11,1.1,1.02
COR-L23,0.359,0.293,0.353,0.269,0.5,0.487,0.512,0.414,0.718,0.699,0.764,0.649,0.744,0.869,1.43,0.846,0.87
HCC-78,0.464,0.513,0.499,0.476,0.776,0.557,0.796,0.668,,,,,1.04,0.893,0.702,1.03,0.591
NCI-H1299,,,,,,,,,,,,,0.952,0.991,0.973,0.961,0.958
NCI-H838,0.225,0.195,0.256,0.179,0.588,0.573,0.748,0.337,0.282,0.226,0.331,0.309,1.05,0.962,1.01,1.01,0.936
NCI-H2126,0.339,0.339,0.344,0.32,0.519,0.528,0.55,0.49,0.923,0.904,1.16,0.915,0.752,0.78,0.764,0.787,0.751
BEN,0.442,0.438,0.526,0.496,0.257,0.262,0.28,0.279,0.416,0.344,0.541,0.39,0.617,0.649,0.744,0.777,0.649
LCLC-103H,0.467,0.478,0.53,0.51,0.305,0.326,0.379,0.355,1.02,0.906,1.04,0.928,,,,,
ChaGo-K-1,0.933,0.849,1.04,0.961,0.449,0.388,0.509,0.48,0.704,0.717,0.513,0.622,,,,,
NCI-H1648,,,0.317,0.254,,,,,,,,,,,,,
NCI-H1563,,,,,0.695,0.718,0.654,0.629,0.529,0.552,0.567,0.515,0.88,1.1,0.902,0.888,0.938
A549,,,,,0.247,0.11,0.181,0.254,,,,,1.03,1.05,1.14,1.08,1
NCI-H522,0.949,1.11,1.11,0.894,0.659,0.649,0.622,0.661,1.07,1.14,1.45,1.17,,,,,
NCI-H441,0.33,0.142,0.24,0.202,0.849,0.745,1.09,0.683,0.291,0.377,0.356,0.411,,,,,
NCI-H1623,,,,,,0.594,0.587,0.55,,0.647,0.596,0.459,,,,,
SW 900,0.602,0.596,0.529,0.511,0.511,0.555,0.874,0.411,0.175,0.153,0.172,0.17,,,,,
IA-LM,,,,,,,,,,,,,0.772,0.86,0.527,0.816,0.617
EBC-1,,,,,,,,,,,,,0.225,0.21,0.226,0.205,0.221
